These results are taken from ChEMBL document CHEMBL1159264, “Aplysillin A, a thrombin receptor antagonist from the marine sponge Aplysina fistularis fulva” (J Nat Prod, 1995).

A word on the IC50: it is the concentration at which inhibition is half-maximal. Higher therefore signals weaker potency in that assay.

The target of this experiment is T1, Proteinase-activated receptor 1 (Homo sapiens, UniProt P25116).
T1 sequence (P25116 whole entry): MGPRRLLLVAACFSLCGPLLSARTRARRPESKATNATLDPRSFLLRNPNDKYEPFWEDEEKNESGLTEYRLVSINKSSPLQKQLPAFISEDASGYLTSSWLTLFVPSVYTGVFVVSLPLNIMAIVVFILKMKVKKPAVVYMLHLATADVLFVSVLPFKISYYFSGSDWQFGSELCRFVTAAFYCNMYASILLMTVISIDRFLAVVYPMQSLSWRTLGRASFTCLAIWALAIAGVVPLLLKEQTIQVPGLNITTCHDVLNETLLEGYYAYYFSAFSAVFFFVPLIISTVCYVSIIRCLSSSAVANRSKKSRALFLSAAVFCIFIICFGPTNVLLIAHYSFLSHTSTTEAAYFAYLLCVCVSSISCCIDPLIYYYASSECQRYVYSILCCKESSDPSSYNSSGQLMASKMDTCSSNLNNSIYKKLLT
The experiment can be described thus: Displacement of [125I]thrombin from thrombin receptor in human platelet membrane. In kind it is cell membranes.

`O=S(=O)(O)OC(=C\c1cc(O)c(O)c(Br)c1)/C(=C\c1ccc(O)c(Br)c1)OS(=O)(=O)O` [APLYSIILLIN A] came in with an IC50 of 20 µM.
